The text below walks through data of patent US20230093099A1, “COMPOUNDS AND METHODS OF TREATING CANCERS” (CULLGEN (SHANGHAI), INC., priority 2019, published 2023).

The test system of the assay is RS4;11 cells. The assay is described as follows: Cell viability assay (CellTiter-Glo) in RS4;11 cells. In kind it is cell-based. Conditions: Homo sapiens, 72 h; RS4;11 cells; cell viability, 3 days, CellTiter-Glo; read-out: IC50. How it is done:
Specific exemplary heterobifunctional compounds were first characterized using cell viability assays. RS4;11 ALL cells were treated with bifunctional degraders for three days. The IC50 values ranged from 2 nM to over 10 uM.
MV4;11, RS4;11, Kasumi-1, HEL and other cells were treated with NVP-BSK805, TG101209 or selected degraders for 3 days at indicated concentrations following a 3-fold serial dilution.
HEL, RS4;11, MV4;11, Kasumi-1 and other cells were cultured at 37° C. with 5% CO2 in RPMI 1640 or DMEM Medium supplemented with 10% fetal bovine serum. Cells were authenticated using the short tandem repeat (STR) assays. Mycoplasma test results were negative.
Cells were seeded at a density of 5000 cells per well in 96-well assay plates and treated with test compounds following a 8-point or 12-point 3-fold serial dilution. Three days later, cell viability was determined using the CellTiter-Glo assay kit according to the manufacturer's instructions. The dose-response curves were determined and IC50 values were calculated using the GraphPad Prism software following a nonlinear regression (least squares fit) method.
(In general: In ATP-based viability assays light output follows the ATP content of the culture.)
`Cc1cnc(Nc2ccc(N3CCN(C(=O)CCOCCOCCOCCNc4cccc5c4C(=O)N(C4CCC(=O)NC4=O)C5=O)CC3)cc2)nc1Nc1cccc(S(=O)(=O)NC(C)(C)C)c1` (stereo not shown) [JA-019, N-(tert-Butyl)-3-((2-((4-(4-(3-(2-(2-(2-((2-(2,6-dioxopiperidin-3-yl)-1,3-dioxoisoindolin-4-yl)amino)ethoxy)ethoxy)ethoxy)propanoyl)piperazin-1-yl)phenyl)amino)-5-methylpyrimidin-4-yl)amino)benzenesulfonamide]: the IC50 was found to be 0.357 µM.
Then `Cc1cnc(Nc2ccc(N3CCN(C(=O)CCOCCOCCOCCOCCNc4cccc5c4C(=O)N(C4CCC(=O)NC4=O)C5=O)CC3)cc2)nc1Nc1cccc(S(=O)(=O)NC(C)(C)C)c1` (stereo not shown) [JA-020, N-(tert-Butyl)-3-((2-((4-(4-(1-((2-(2,6-dioxopiperidin-3-yl)-1,3-dioxoisoindolin-4-yl)amino)-3,6,9,12-tetraoxapentadecan-15-oyl)piperazin-1-yl)phenyl)amino)-5-methylpyrimidin-4-yl)amino)benzenesulfonamide], with 0.633 µM; and `Cc1cnc(Nc2ccc(N3CCN(C(=O)CCOCCOCCOCCOCCOCCNc4cccc5c4C(=O)N(C4CCC(=O)NC4=O)C5=O)CC3)cc2)nc1Nc1cccc(S(=O)(=O)NC(C)(C)C)c1` (stereo not shown) [JA-021], with 0.94 µM; and `Cc1cnc(Nc2ccc(N3CCN(C(=O)CCC(=O)N[C@H](C(=O)N4C[C@H](O)C[C@H]4C(=O)NCc4ccc(-c5scnc5C)cc4)C(C)(C)C)CC3)cc2)nc1Nc1cccc(S(=O)(=O)NC(C)(C)C)c1` [JA-022, (2S,4R)-1-((S)-2-(4-(4-(4-((4-((3-(N-(tert-Butyl)sulfamoyl)phenyl)amino)-5-methylpyrimidin-2-yl)amino)phenyl)piperazin-1-yl)-4-oxobutanamido)-3,3-dimethylbutanoyl)-4-hydroxy-N-(4-(4-methylthiazol-5-yl)benzyl)pyrrolidine-2-carboxamide], with greater than 10 µM.
For `Cc1cnc(Nc2ccc(N3CCN(C(=O)CCCC(=O)N[C@H](C(=O)N4C[C@H](O)C[C@H]4C(=O)NCc4ccc(-c5scnc5C)cc4)C(C)(C)C)CC3)cc2)nc1Nc1cccc(S(=O)(=O)NC(C)(C)C)c1` [JA-023, (2S,4R)-1-((S)-2-(5-(4-(4-((4-((3-(N-(tert-Butyl)sulfamoyl)phenyl)amino)-5-methylpyrimidin-2-yl)amino)phenyl)piperazin-1-yl)-5-oxopentanamido)-3,3-dimethylbutanoyl)-4-hydroxy-N-(4-(4-methylthiazol-5-yl)benzyl)pyrrolidine-2-carboxamide] the value was greater than 10 µM; for `Cc1cnc(Nc2ccc(N3CCN(C(=O)CCCCC(=O)N[C@H](C(=O)N4C[C@H](O)C[C@H]4C(=O)NCc4ccc(-c5scnc5C)cc4)C(C)(C)C)CC3)cc2)nc1Nc1cccc(S(=O)(=O)NC(C)(C)C)c1` [JA-024, (2S,4R)-1-((S)-2-(6-(4-(4-((4-((3-(N-(tert-Butyl)sulfamoyl)phenyl)amino)-5-methylpyrimidin-2-yl)amino)phenyl)piperazin-1-yl)-6-oxohexanamido)-3,3-dimethylbutanoyl)-4-hydroxy-N-(4-(4-methylthiazol-5-yl)benzyl)pyrrolidine-2-carboxamide], greater than 10 µM; for `Cc1cnc(Nc2ccc(N3CCN(C(=O)CCCCCC(=O)N[C@H](C(=O)N4C[C@H](O)C[C@H]4C(=O)NCc4ccc(-c5scnc5C)cc4)C(C)(C)C)CC3)cc2)nc1Nc1cccc(S(=O)(=O)NC(C)(C)C)c1` [JA-025, (2S,4R)-1-((S)-2-(7-(4-(4-((4-((3-(N-(tert-Butyl)sulfamoyl)phenyl)amino)-5-methylpyrimidin-2-yl)amino)phenyl)piperazin-1-yl)-7-oxoheptanamido)-3,3-dimethylbutanoyl)-4-hydroxy-N-(4-(4-methylthiazol-5-yl)benzyl)pyrrolidine-2-carboxamide], greater than 10 µM.
For `Cc1cnc(Nc2ccc(N3CCN(C(=O)CCCCCCC(=O)N[C@H](C(=O)N4C[C@H](O)C[C@H]4C(=O)NCc4ccc(-c5scnc5C)cc4)C(C)(C)C)CC3)cc2)nc1Nc1cccc(S(=O)(=O)NC(C)(C)C)c1` [JA-026, (2S,4R)-1-((S)-2-(8-(4-(4-((4-((3-(N-(tert-Butyl)sulfamoyl)phenyl)amino)-5-methylpyrimidin-2-yl)amino)phenyl)piperazin-1-yl)-8-oxooctanamido)-3,3-dimethylbutanoyl)-4-hydroxy-N-(4-(4-methylthiazol-5-yl)benzyl)pyrrolidine-2-carboxamide] the value was greater than 10 µM; for `Cc1cnc(Nc2ccc(N3CCN(C(=O)CCCCCCCC(=O)N[C@H](C(=O)N4C[C@H](O)C[C@H]4C(=O)NCc4ccc(-c5scnc5C)cc4)C(C)(C)C)CC3)cc2)nc1Nc1cccc(S(=O)(=O)NC(C)(C)C)c1` [JA-027, (2S,4R)-1-((S)-2-(9-(4-(4-((4-((3-(N-(tert-Butyl)sulfamoyl)phenyl)amino)-5-methylpyrimidin-2-yl)amino)phenyl)piperazin-1-yl)-9-oxononanamido)-3,3-dimethylbutanoyl)-4-hydroxy-N-(4-(4-methylthiazol-5-yl)benzyl)pyrrolidine-2-carboxamide], greater than 10 µM.
In the case of `Cc1cnc(Nc2ccc(N3CCN(C(=O)CCCCCCCCC(=O)N[C@H](C(=O)N4C[C@H](O)C[C@H]4C(=O)NCc4ccc(-c5scnc5C)cc4)C(C)(C)C)CC3)cc2)nc1Nc1cccc(S(=O)(=O)NC(C)(C)C)c1` [JA-028, (2S,4R)-1-((S)-2-(10-(4-(4-((4-((3-(N-(tert-Butyl)sulfamoyl)phenyl)amino)-5-methylpyrimidin-2-yl)amino)phenyl)piperazin-1-yl)-10-oxodecanamido)-3,3-dimethylbutanoyl)-4-hydroxy-N-(4-(4-methylthiazol-5-yl)benzyl)pyrrolidine-2-carboxamide], the IC50 is greater than 10 µM.
Then `Cc1cnc(Nc2ccc(N3CCN(C(=O)CCCCCCCCCC(=O)N[C@H](C(=O)N4C[C@H](O)C[C@H]4C(=O)NCc4ccc(-c5scnc5C)cc4)C(C)(C)C)CC3)cc2)nc1Nc1cccc(S(=O)(=O)NC(C)(C)C)c1` [JA-029, (2S,4R)-1-((S)-2-(11-(4-(4-((4-((3-(N-(tert-Butyl)sulfamoyl)phenyl)amino)-5-methylpyrimidin-2-yl)amino)phenyl)piperazin-1-yl)-11-oxoundecanamido)-3,3-dimethylbutanoyl)-4-hydroxy-N-(4-(4-methylthiazol-5-yl)benzyl)pyrrolidine-2-carboxamide], with greater than 10 µM; and `Cc1cnc(Nc2ccc(N3CCN(C(=O)COCC(=O)N[C@H](C(=O)N4C[C@H](O)C[C@H]4C(=O)NCc4ccc(-c5scnc5C)cc4)C(C)(C)C)CC3)cc2)nc1Nc1cccc(S(=O)(=O)NC(C)(C)C)c1` [JA-030, (2S,4R)-1-((S)-2-(2-(2-(4-(4-((4-((3-(N-(tert-Butyl)sulfamoyl)phenyl)amino)-5-methylpyrimidin-2-yl)amino)phenyl)piperazin-1-yl)-2-oxoethoxy)acetamido)-3,3-dimethylbutanoyl)-4-hydroxy-N-(4-(4-methylthiazol-5-yl)benzyl)pyrrolidine-2-carboxamide], with greater than 10 µM; and `Cc1cnc(Nc2ccc(N3CCN(C(=O)CCOCCC(=O)N[C@H](C(=O)N4C[C@H](O)C[C@H]4C(=O)NCc4ccc(-c5scnc5C)cc4)C(C)(C)C)CC3)cc2)nc1Nc1cccc(S(=O)(=O)NC(C)(C)C)c1` [JA-031, (2S,4R)-1-((S)-2-(3-(3-(4-(4-((4-((3-(N-(tert-Butyl)sulfamoyl)phenyl)amino)-5-methylpyrimidin-2-yl)amino)phenyl)piperazin-1-yl)-3-oxopropoxy)propanamido)-3,3-dimethylbutanoyl)-4-hydroxy-N-(4-(4-methylthiazol-5-yl)benzyl)pyrrolidine-2-carboxamide], with greater than 10 µM.
For `Cc1cnc(Nc2ccc(N3CCN(C(=O)COCCOCC(=O)N[C@H](C(=O)N4C[C@H](O)C[C@H]4C(=O)NCc4ccc(-c5scnc5C)cc4)C(C)(C)C)CC3)cc2)nc1Nc1cccc(S(=O)(=O)NC(C)(C)C)c1` [JA-032, (2S,4R)-1-((S)-2-(2-(2-(2-(4-(4-((4-((3-(N-(tert-Butyl)sulfamoyl)phenyl)amino)-5-methylpyrimidin-2-yl)amino)phenyl)piperazin-1-yl)-2-oxoethoxy)ethoxy)acetamido)-3,3-dimethylbutanoyl)-4-hydroxy-N-(4-(4-methylthiazol-5-yl)benzyl)pyrrolidine-2-carboxamide] the value was greater than 10 µM.
With `Cc1cnc(Nc2ccc(N3CCN(C(=O)CCOCCOCCC(=O)N[C@H](C(=O)N4C[C@H](O)C[C@H]4C(=O)NCc4ccc(-c5scnc5C)cc4)C(C)(C)C)CC3)cc2)nc1Nc1cccc(S(=O)(=O)NC(C)(C)C)c1` [JA-033, (2S,4R)-1-((S)-2-(3-(2-(3-(4-(4-((4-((3-(N-(tert-Butyl)sulfamoyl)phenyl)amino)-5-methylpyrimidin-2-yl)amino)phenyl)piperazin-1-yl)-3-oxopropoxy)ethoxy)propanamido)-3,3-dimethylbutanoyl)-4-hydroxy-N-(4-(4-methylthiazol-5-yl)benzyl)pyrrolidine-2-carboxamide], the 50% inhibitory concentration (IC50) was greater than 10 µM.
Then `Cc1cnc(Nc2ccc(N3CCN(C(=O)CCOCCOCCOCCC(=O)N[C@H](C(=O)N4C[C@H](O)C[C@H]4C(=O)NCc4ccc(-c5scnc5C)cc4)C(C)(C)C)CC3)cc2)nc1Nc1cccc(S(=O)(=O)NC(C)(C)C)c1` [JA-034, (2S,4R)-1-((S)-2-(tert-Butyl)-16-(4-(4-((4-((3-(N-(tert-butyl)sulfamoyl)phenyl)amino)-5-methylpyrimidin-2-yl)amino)phenyl)piperazin-1-yl)-4,16-dioxo-7,10,13-trioxa-3-azahexadecanoyl)-4-hydroxy-N-(4-(4-methylthiazol-5-yl)benzyl)pyrrolidine-2-carboxamide], with greater than 10 µM.

As usually defined, the IC50 is the concentration that inhibits the measured activity by half.
